The text below walks through data of PubChem BioAssay AID220 (DTP/NCI, 2004).

Several values for one entry are separate records, joined by “and”; a condition that tells them apart may be missing. Identical values can stand only once. Records with an inconclusive call do not appear.

The assay relates to CD8F1 mice, subcutaneous mammary adenocarcinoma, T/C%. As to the kind of experiment: NCI In Vivo Anticancer Drug Screen. Data for tumor model Mammary Adenocarcinoma CD8F1 (subcutaneous) in CD8F1. The settings on record: higher = larger tumour. In short, it runs like this:
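Mice carrying transplanted tumors received test compound, and survival or tumor size was recorded. Each value is the treated-group measurement divided by the corresponding measurement in vehicle-dosed controls.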

The mark [1] stands for this setting: endpoint: median tumor weight change, dose: 125.0 mg/kg/injection, schedule: Q01DX001 (ip), vehicle: saline with Tween-80.
[2] abbreviates: endpoint: median tumor weight change, dose: 62.5 mg/kg/injection, schedule: Q01DX001 (ip), vehicle: saline with Tween-80.
Setting [3] is: endpoint: median tumor weight (est.), dose: 12.5 mg/kg/injection, schedule: Q07DX005 (ip), vehicle: Klucel (hydroxypropylcellulose) (HPC).
Where [4] appears, read: endpoint: median tumor weight (est.), dose: 3.12 mg/kg/injection, schedule: Q07DX005 (ip), vehicle: saline with Tween-80.
[5] abbreviates: endpoint: median tumor weight (est.), dose: 6.25 mg/kg/injection, schedule: Q07DX005 (ip), vehicle: saline with Tween-80.
Setting [6] is: endpoint: median tumor weight (est.), dose: 12.5 mg/kg/injection, schedule: Q07DX005 (ip), vehicle: saline with Tween-80.
Setting [7] is: endpoint: median tumor weight (est.), dose: 25.0 mg/kg/injection, schedule: Q07DX005 (ip), vehicle: saline with Tween-80.
The mark [8] stands for this setting: endpoint: median tumor weight (est.), dose: 3.12 mg/kg/injection, schedule: Q07DX005 (ip), vehicle: Klucel (hydroxypropylcellulose) (HPC).
The mark [9] stands for this setting: endpoint: median tumor weight (est.), dose: 50.0 mg/kg/injection, schedule: Q07DX005 (ip), vehicle: Klucel (hydroxypropylcellulose) (HPC).
Where [10] appears, read: endpoint: median tumor weight (est.), dose: 100.0 mg/kg/injection, schedule: Q07DX005 (ip), vehicle: saline.
The mark [11] stands for this setting: endpoint: median tumor weight (est.), dose: 12.5 mg/kg/injection, schedule: Q07DX005 (ip), vehicle: saline.
Setting [12] is: endpoint: median tumor weight (est.), dose: 6.25 mg/kg/injection, schedule: Q07DX005 (ip), vehicle: Klucel (hydroxypropylcellulose) (HPC).
[13] abbreviates: endpoint: median tumor weight (est.), dose: 25.0 mg/kg/injection, schedule: Q07DX005 (ip), vehicle: Klucel (hydroxypropylcellulose) (HPC).

`COc1cccc2c1C(=O)c1c(O)c3c(c(O)c1C2=O)CC(O)(C(=O)CO)CC3OC1CC(N)C(O)C(C)O1` (configuration not stated): the T/C is, setting by setting: (endpoint: median tumor weight (est.), dose: 12.0 mg/kg/injection, schedule: Q07DX006 (ip), vehicle: saline) 37 % of control; (endpoint: median tumor weight (est.), dose: 20.0 mg/kg/injection, schedule: Q07DX005 (ip), vehicle: water) 33 % of control; (endpoint: median tumor weight (est.), dose: 24.0 mg/kg/injection, schedule: Q07DX006 (ip), vehicle: saline) 18 % of control; (endpoint: median tumor weight (est.), dose: 30.0 mg/kg/injection, schedule: Q07DX005 (ip), vehicle: saline) 33 % of control; (endpoint: median tumor weight (est.), dose: 30.0 mg/kg/injection, schedule: Q07DX005 (ip), vehicle: water) 11 % of control and 22 % of control; (endpoint: median tumor weight (est.), dose: 45.0 mg/kg/injection, schedule: Q07DX005 (ip), vehicle: water) 1 % of control and 11 % of control. The T/C was 1 % of control (endpoint: median tumor weight (est.), dose: 48.0 mg/kg/injection, schedule: Q07DX006 (ip), vehicle: saline); 14 % of control and 18 % of control (endpoint: median tumor weight (est.), dose: 60.0 mg/kg/injection, schedule: Q07DX005 (ip), vehicle: saline).
With `O=C(Nc1nncs1)c1cccs1`, the T/C under setting [1] was 92 % of control and 100 % of control.
In the case of `O=C(O)[C@H](Cc1ccccc1)N1C(=O)c2ccccc2C1=O`, the T/C reads like this: (endpoint: median tumor weight change, dose: 62.5 mg/kg/injection, schedule: Q01DX001 (ip), vehicle: DMSO) 75 % of control; (endpoint: median tumor weight change, dose: 125.0 mg/kg/injection, schedule: Q01DX001 (ip), vehicle: DMSO) 116 % of control; (endpoint: median tumor weight change, dose: 250.0 mg/kg/injection, schedule: Q01DX001 (ip), vehicle: DMSO) 68 % of control; (endpoint: median tumor weight change, dose: 500.0 mg/kg/injection, schedule: Q01DX001 (ip), vehicle: DMSO) 59 % of control.
Turning to `CCOC1=Cc2c(oc3c(C(C)(C)C)cc(OCC)cc23)OC(C(C)(C)C)=C1`, the T/C (endpoint: median tumor weight change, dose: 15.6 mg/kg/injection, schedule: Q01DX001 (ip), vehicle: saline with Tween-80) was 114 % of control; the T/C (endpoint: median tumor weight change, dose: 15.62 mg/kg/injection, schedule: Q01DX001 (ip), vehicle: saline with Tween-80) was 98 % of control; the T/C under setting [2] is 85 % of control and 106 % of control.
Turning to `CCCCC(C)(C(=O)OCC)C(=O)OCC`, the T/C runs as follows: under setting [3], 94 % of control; (endpoint: median tumor weight (est.), dose: 200.0 mg/kg/injection, schedule: Q07DX005 (ip), vehicle: Klucel (hydroxypropylcellulose) (HPC)) 110 % of control; (endpoint: median tumor weight (est.), dose: 400.0 mg/kg/injection, schedule: Q07DX005 (ip), vehicle: Klucel (hydroxypropylcellulose) (HPC)) 212 % of control.
`COc1cccc2c1C(=O)c1c(O)c3c(c(O)c1C2=O)C[C@@](O)(C(C)=O)C[C@@H]3OC1CC(N(Cc2ccccc2)Cc2ccccc2)C(O)C(C)O1` (some centres not stated): the T/C was 68 % of control (endpoint: median tumor weight (est.), dose: 1.56 mg/kg/injection, schedule: Q07DX005 (ip), vehicle: saline with Tween-80); 72 % of control under setting [4]; 75 % of control under setting [5]; 29 % of control under setting [6]; 9 % of control under setting [7].
`O=C(CCCN1CCC(O)(c2cccc(C(F)(F)F)c2)CC1)c1ccc(F)cc1`: the T/C under setting [8] is 116 % of control and 118 % of control; the T/C under setting [9] is 55 % of control and 62 % of control.
Turning to `CN(C)C=O`, the T/C runs as follows: under setting [10], 78 % of control; (endpoint: median tumor weight (est.), dose: 400.0 mg/kg/injection, schedule: Q07DX005 (ip), vehicle: saline) 105 % of control; (endpoint: median tumor weight (est.), dose: 800.0 mg/kg/injection, schedule: Q07DX005 (ip), vehicle: saline) 96 % of control.
For the compound `CSc1ccc2c(c1)C(N1CCN(C)CC1)Cc1ccccc1S2` (configuration not stated), the T/C is, setting by setting: under setting [4], 104 % of control; under setting [5], 95 % of control; under setting [6], 63 % of control; under setting [7], 53 % of control; (endpoint: median tumor weight (est.), dose: 50.0 mg/kg/injection, schedule: Q07DX005 (ip), vehicle: saline with Tween-80) 104 % of control.
For `COc1c(O)c2c(c3cc(C(=O)N4CCc5c4c(O)c(OC)c4[nH]c(C(=O)N6CC7CC78C6=CC(=O)c6[nH]cc(C)c68)cc54)[nH]c13)CCN2C(N)=O` (configuration not stated), the T/C was 97 % of control (endpoint: median tumor weight (est.), dose: 6.25 micrograms/kg/injection, schedule: Q07DX005 (ip), vehicle: DMSO) and 42 % of control (endpoint: median tumor weight (est.), dose: 12.5 micrograms/kg/injection, schedule: Q07DX005 (ip), vehicle: DMSO).
Take `CCN(CC)CCNc1ccc(C)c2sc3ccc(O)cc3c(=O)c12`: the T/C was 59 % of control under setting [2]; 169 % of control under setting [1]; 37 % of control (endpoint: median tumor weight change, dose: 684.0 mg/kg/injection, schedule: Q01DX001 (ip), vehicle: saline with Tween-80).
As to `O=Cc1ccc(C=O)c(Cl)c1`, the T/C runs as follows: (endpoint: median tumor weight change, dose: 125.0 mg/kg/injection, schedule: Q01DX001 (ip), vehicle: Klucel (hydroxypropylcellulose) (HPC)) 104 % of control; (endpoint: median tumor weight change, dose: 250.0 mg/kg/injection, schedule: Q01DX001 (ip), vehicle: Klucel (hydroxypropylcellulose) (HPC)) 99 % of control; (endpoint: median tumor weight change, dose: 500.0 mg/kg/injection, schedule: Q01DX001 (ip), vehicle: Klucel (hydroxypropylcellulose) (HPC)) 79 % of control; (endpoint: median tumor weight change, dose: 1000.0 mg/kg/injection, schedule: Q01DX001 (ip), vehicle: Klucel (hydroxypropylcellulose) (HPC)) 117 % of control; (endpoint: median tumor weight change, dose: 2000.0 mg/kg/injection, schedule: Q01DX001 (ip), vehicle: Klucel (hydroxypropylcellulose) (HPC)) 67 % of control.
For `COC1C(O)CC(OC2CC(OC3CC(O[C@@H]4C(=O)c5c(cc6cc(OC7CC(OC8CC(O)C(O)C(C)O8)C(O)C(C)O7)c(C)c(O)c6c5O)C[C@H]4[C@H](OC)C(=O)[C@@H](O)[C@@H](C)O)OC(C)C3O)OC(C)C2O)OC1C` (some centres not stated), the T/C (endpoint: median tumor weight (est.), dose: 0.18 mg/kg/injection, schedule: Q07DX005 (ip), vehicle: saline) was 88 % of control; the T/C (endpoint: median tumor weight (est.), dose: 0.75 mg/kg/injection, schedule: Q07DX005 (ip), vehicle: saline) is 24 % of control and 42 % of control.
Consider `COc1cc2cc3cc4cc(OC)c(OC)cc4c(C)[n+]3cc2cc1OC` (tested in a mixture with another compound), for which the T/C was 68 % of control under setting [11]; 88 % of control (endpoint: median tumor weight (est.), dose: 25.0 mg/kg/injection, schedule: Q07DX005 (ip), vehicle: saline); 82 % of control (endpoint: median tumor weight (est.), dose: 50.0 mg/kg/injection, schedule: Q07DX005 (ip), vehicle: saline); 90 % of control under setting [10]; 39 % of control (endpoint: median tumor weight (est.), dose: 200.0 mg/kg/injection, schedule: Q07DX005 (ip), vehicle: saline).
Take `CNC(=O)OCc1c(COC(=O)NC)c(-c2ccc(F)cc2)n2c1CCC2`: the T/C was 49 % of control under setting [8]; 63 % of control under setting [12]; 84 % of control under setting [3]; 48 % of control under setting [13]; 39 % of control under setting [9].
As to `O=c1[nH]c(=O)n(C2CC(O)C(CO)O2)cc1C(F)(F)F` (configuration not stated), the T/C by setting is: (endpoint: mean tumor weight, dose: 125.0 mg/kg/injection, schedule: Q07DX005 (ip), vehicle: saline) 65 % of control; (endpoint: mean tumor weight, dose: 250.0 mg/kg/injection, schedule: Q07DX005 (ip), vehicle: saline) 84 % of control; (endpoint: mean tumor weight, dose: 250.0 mg/kg/injection, schedule: Q07DX008 (ip), vehicle: saline) 184 % of control; (endpoint: mean tumor weight, dose: 500.0 mg/kg/injection, schedule: Q07DX005 (ip), vehicle: saline) 59 % of control; (endpoint: mean tumor weight, dose: 500.0 mg/kg/injection, schedule: Q07DX008 (ip), vehicle: saline) 55 % of control; (endpoint: mean tumor weight, dose: 750.0 mg/kg/injection, schedule: Q07DX008 (ip), vehicle: saline) 68 % of control. Besides, the T/C (endpoint: median tumor weight (est.), dose: 12.5 mg/kg/injection, schedule: Q07DX005 (ip), vehicle: suspension in saline) is 28 % of control; the T/C (endpoint: median tumor weight (est.), dose: 250.0 mg/kg/injection, schedule: Q07DX005 (ip), vehicle: suspension in saline) is 100 % of control; the T/C (endpoint: median tumor weight (est.), dose: 500.0 mg/kg/injection, schedule: Q07DX005 (ip), vehicle: suspension in saline) was 26 % of control.
Turning to `C[n+]1c2cc(N)ccc2cc2ccc(N)cc21`, the T/C was 104 % of control (endpoint: median tumor weight (est.), dose: 6.25 mg/kg/injection, schedule: Q07DX005 (ip), vehicle: saline) and 211 % of control under setting [11].
On to `O=C1C(=O)c2ccccc2C(O)=C1CC=C(Cl)Cl`, for which the T/C by setting is: under setting [12], 112 % of control; under setting [3], 52 % of control; under setting [13], 99 % of control; under setting [9], 93 % of control; (endpoint: median tumor weight (est.), dose: 100.0 mg/kg/injection, schedule: Q07DX005 (ip), vehicle: Klucel (hydroxypropylcellulose) (HPC)) 61 % of control.
